Results taken from PubChem BioAssay (NCI).
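Following 48 hours of exposure in 96-well plates, responses at five concentrations were used to interpolate endpoints linearly. Definition used: TGI = concentration required for complete inhibition of growth.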

Experiments:
Assay in all cases: growth of human tumour cells (NCI), 48 h
PC-3 prostate = tested on: PC-3 prostate
KM12 colon = tested on: KM12 colon
SK-OV-3 ovarian = tested on: SK-OV-3 ovarian
MCF7 breast = tested on: MCF7 breast
IGROV1 ovarian = tested on: IGROV1 ovarian
HOP-92 NSCLC = tested on: HOP-92 NSCLC
CCRF-CEM leukemia = tested on: CCRF-CEM leukemia
HS 578T breast = tested on: HS 578T breast
OVCAR-8 ovarian = tested on: OVCAR-8 ovarian
HOP-62 NSCLC = tested on: HOP-62 NSCLC
NCI-H522 lung = tested on: NCI-H522 lung
DU-145 prostate = tested on: DU-145 prostate
COLO 205 colon = tested on: COLO 205 colon
LOX IMVI melanoma = tested on: LOX IMVI melanoma
TK-10 renal = tested on: TK-10 renal
RPMI-8226 leukemia = tested on: RPMI-8226 leukemia
786-0 renal = tested on: 786-0 renal
SNB-75 CNS = tested on: SNB-75 CNS
HT29 colon = tested on: HT29 colon
RXF 393 renal = tested on: RXF 393 renal
MOLT-4 leukemia = tested on: MOLT-4 leukemia
SK-MEL-5 melanoma = tested on: SK-MEL-5 melanoma
SF-268 CNS = tested on: SF-268 CNS
SF-295 CNS = tested on: SF-295 CNS
A498 renal = tested on: A498 renal
SR leukemia = tested on: SR leukemia
SF-539 CNS = tested on: SF-539 CNS
NCI-H460 lung = tested on: NCI-H460 lung
NCI-H23 lung = tested on: NCI-H23 lung
SW-620 colon = tested on: SW-620 colon
NCI-H226 lung = tested on: NCI-H226 lung
BT-549 breast = tested on: BT-549 breast
T-47D breast = tested on: T-47D breast
HL-60(TB) leukemia = tested on: HL-60(TB) leukemia
OVCAR-5 ovarian = tested on: OVCAR-5 ovarian
SK-MEL-2 melanoma = tested on: SK-MEL-2 melanoma
OVCAR-4 ovarian = tested on: OVCAR-4 ovarian
SK-MEL-28 melanoma = tested on: SK-MEL-28 melanoma
EKVX NSCLC = tested on: EKVX NSCLC
MDA-N = tested on: MDA-N
SNB-19 CNS = tested on: SNB-19 CNS
SN12C renal = tested on: SN12C renal
OVCAR-3 ovarian = tested on: OVCAR-3 ovarian
M14 melanoma = tested on: M14 melanoma
MDA-MB-435 = tested on: MDA-MB-435
CAKI-1 renal = tested on: CAKI-1 renal
K-562 leukemia = tested on: K-562 leukemia
A549 NSCLC = tested on: A549 NSCLC
HCT-15 colon = tested on: HCT-15 colon
MDA-MB-231 breast = tested on: MDA-MB-231 breast
UACC-62 melanoma = tested on: UACC-62 melanoma
U251 CNS = tested on: U251 CNS
ACHN renal = tested on: ACHN renal
HCC-2998 colon = tested on: HCC-2998 colon
MALME-3M melanoma = tested on: MALME-3M melanoma
UACC-257 melanoma = tested on: UACC-257 melanoma
NCI/ADR-RES ovarian = tested on: NCI/ADR-RES ovarian
HCT-116 colon = tested on: HCT-116 colon
UO-31 renal = tested on: UO-31 renal

Measured: TGI

CCN(CC)CCn1ncc2c3c(=O)c4cccnc4n(CCN(CC)CC)c3ccc21
6.67 µM: COLO 205 colon
not listed: UO-31 renal
> 10 µM: all other assays above

CCc1c(-c2ccc(OC)cc2)c(=O)oc2cc(O)ccc12
58.4 µM: SR leukemia
33.8 µM: SK-MEL-5 melanoma
47.6 µM: RPMI-8226 leukemia
98.7 µM: A498 renal
56.8 µM: M14 melanoma
83.3 µM: PC-3 prostate
75.9 µM: BT-549 breast
32.6 µM: HL-60(TB) leukemia
79.5 µM: MALME-3M melanoma
97.1 µM: COLO 205 colon
87.5 µM: OVCAR-3 ovarian
57.9 µM: MOLT-4 leukemia
61.3 µM: UACC-257 melanoma
68.4 µM: UO-31 renal
not listed: SK-OV-3 ovarian | TK-10 renal
> 100 µM: all other assays above
